Laboratory results published in patent publication US20250170126A1 (MITSUBISHI TANABE PHARMA CORPORATION, priority 2022, published 2025).
pIC50: −log10 of the molar value.

Target: Human B0AT1 (Homo sapiens (Human), UniProt Q695T7)
Test: hB0AT1 inhibitory test (phenylalanine uptake)
Type: cell-based
Settings: Human B0AT1 stable expression CHO cells; [3H]-L-phenylalanine uptake, phenylalanine 0.25 mM
Experimental: A test compound dissolved in dimethyl sulfoxide (DMSO) was added to a 96 well plate for solid phase radioactivity measurement containing a scintillator at the bottom of the well (final concentration of DMSO 0.5%). DMSO alone as a control and DMSO containing N-(4-bromophenyl)-3,5-dichloro-2-hydroxybenzamide (final concentration […]) for the is measurement of B0AT1 non-specific uptake were similarly added at 0.5 μL per well. Human B0AT1 stable expression CHO cells suspended in a buffer (buffer containing 96 mM sodium chloride, 2 mM potassium chloride, 1.8 mM calcium chloride, 1 mM magnesium chloride, 0.01% bovine serum albumin, and 10 mM 2-[4-(2-hydroxyethyl)-1-piperazinyl]ethanesulfonic acid) were added by 90 μL to 75000 cells/well. After standing at ordinary temperature for 30 min or longer, the cells were subjected to a phenylalanine uptake experiment. A buffer containing L-phenylalanine and [3,4,5-3H]-L-phenylalanine was added by 10 μL per well (final concentration of phenylalanine 0.25 mM), and the radioactivity of the plate bottom surface at ordinary temperature was measured with a scintillation counter over time, and the radioactivity value after 100 to 200 min was analyzed. A value obtained by subtracting the B0AT1 non-specific uptake from the control uptake was taken as 100%, and the concentration necessary for each test compound to achieve 50% inhibition (IC50 value) was determined by nonlinear regression using a logistic model.

Human B0AT1, sequence (Q695T7 whole entry): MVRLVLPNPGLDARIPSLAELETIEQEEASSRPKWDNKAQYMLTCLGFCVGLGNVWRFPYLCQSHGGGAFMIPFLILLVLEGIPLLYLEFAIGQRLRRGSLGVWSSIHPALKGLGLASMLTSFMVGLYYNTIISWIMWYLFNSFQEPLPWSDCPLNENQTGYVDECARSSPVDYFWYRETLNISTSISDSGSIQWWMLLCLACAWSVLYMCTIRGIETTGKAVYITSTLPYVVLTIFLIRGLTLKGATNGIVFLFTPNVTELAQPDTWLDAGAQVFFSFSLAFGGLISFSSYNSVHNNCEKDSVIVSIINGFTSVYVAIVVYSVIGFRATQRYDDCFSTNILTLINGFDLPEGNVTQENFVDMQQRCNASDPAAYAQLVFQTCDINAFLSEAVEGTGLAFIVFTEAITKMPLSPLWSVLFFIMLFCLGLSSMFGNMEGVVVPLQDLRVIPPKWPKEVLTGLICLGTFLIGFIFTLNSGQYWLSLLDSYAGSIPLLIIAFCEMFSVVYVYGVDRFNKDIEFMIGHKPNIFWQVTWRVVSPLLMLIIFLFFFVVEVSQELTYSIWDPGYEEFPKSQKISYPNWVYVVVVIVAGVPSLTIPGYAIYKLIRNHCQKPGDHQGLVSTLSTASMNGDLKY

| Compound | pIC50 |
| --- | --- |
| O=C(/C=C/c1ccc(C(F)(F)F)cc1)NCC(=O)N1CC(=O)NC(c2ccccc2)C1 (single isomer, unassigned) [I-136, (E)-N-[2-oxo-2-[3-oxo-5-phenylpiperazin-1-yl]ethyl]-3-[4-(trifluoromethyl)phenyl]prop-2-enamide] | 7.06 |
| COCCN(CCOC)C(=O)CNC(=O)/C=C/c1ccc(C(F)(F)F)cc1 [I-4] | 6.55 |
| CCN(CCOC)C(=O)CNC(=O)/C=C/c1ccc(C(F)(F)F)cc1 [I-5] | 6.58 |
| O=C(/C=C/c1ccc(C(F)(F)F)cc1)NCC(=O)N1CCS(=O)(=O)CC1 [I-9] | 5.80 |
| CCOCCN(CCOCC)C(=O)CNC(=O)/C=C/c1ccc(C(F)(F)F)cc1 [I-10] | 6.10 |
| COCCN(C(=O)CNC(=O)/C=C/c1ccc(C(F)(F)F)cc1)C(C)COC (stereo not shown) [I-11] | 6.55 |
| O=C(/C=C/c1ccc(C(F)(F)F)cc1)NCC(=O)N1CC(=O)NC(c2ccccc2)C1 (stereo not shown) [I-12, (E)-N-[2-oxo-2-(3-oxo-5-phenylpiperazin-1-yl)ethyl]-3-[4-(trifluoromethyl)phenyl]prop-2-enamide] | 6.79 |
| CN1CCN(C(=O)CNC(=O)/C=C/c2ccc(C(F)(F)F)cc2)CC1c1ccccc1 (stereo not shown) [I-13] | 6.95 |
| O=C(/C=C/c1ccc(C(F)(F)F)cc1)NCC(=O)N1CCOC(c2ccccc2)C1 (stereo not shown) [I-14] | 6.09 |
| O=C(/C=C/c1ccc(C(F)(F)F)cc1)NCC(=O)N1CCNC(=O)CC1 [I-15] | 6.64 |
| O=C(/C=C/c1ccc(C(F)(F)F)cc1)NCC(=O)N1CC[C@H](O)C1 [I-18] | 5.78 |
| O=C(/C=C/c1ccc(C(F)(F)F)cc1)NCC(=O)N1CCn2c(nnc2C(F)(F)F)C1 [I-22] | 6.67 |
| CC(C)N1CCN(C(=O)CNC(=O)/C=C/c2ccc(C(F)(F)F)cc2)CC1 [I-24] | 7.24 |
| O=C(/C=C/c1ccc(C(F)(F)F)cc1)NCC(=O)N1CCN(CCO)CC1 [I-25] | 7.09 |
| CC1CCN(C(=O)CNC(=O)/C=C/c2ccc(C(F)(F)F)cc2)CC1 [I-26] | 5.84 |
| CCOC(=O)N1CCN(C(=O)CNC(=O)/C=C/c2ccc(C(F)(F)F)cc2)CC1 [I-27] | 6.14 |
| CC(=O)N1CCN(C(=O)CNC(=O)/C=C/c2ccc(C(F)(F)F)cc2)CC1 [I-28] | 6.01 |
| O=C(/C=C/c1ccc(C(F)(F)F)cc1)NCC(=O)N1CNC(=O)C1 [I-31] | 6.97 |
| O=C(/C=C/c1ccc(C(F)(F)F)cc1)NCC(=O)N1CCN2C(=O)OC[C@H]2C1 [I-32] | 6.67 |
| O=C(/C=C/c1ccc(C(F)(F)F)cc1)NCC(=O)N1CCN2C(=O)OC[C@@H]2C1 [I-33] | 6.50 |
| O=C(/C=C/c1ccc(C(F)(F)F)cc1)NCC(=O)N1CCN2CCOCC2C1 (stereo not shown) [I-41] | 6.08 |
| O=C(/C=C/c1ccc(C(F)(F)F)cc1)NCC(=O)N1CCN2C(=O)CCC2C1 (stereo not shown) [I-43] | 7.10 |
| O=C(/C=C/c1ccc(C(F)(F)F)cc1)NCC(=O)N1CCN2C(=O)NCC2C1 (stereo not shown) [I-44] | 6.58 |

| Compound | pIC50 |
| --- | --- |
| CN1CCN(C(=O)CNC(=O)/C=C/c2ccc(C(F)(F)F)cc2)C(c2ccccc2)C1 (stereo not shown) [I-45] | 7.62 |
| CN(CCS(C)(=O)=O)C(=O)CNC(=O)/C=C/c1ccc(C(F)(F)F)cc1 [I-46] | 6.74 |
| CS(=O)(=O)[C@@H]1CCN(C(=O)CNC(=O)/C=C/c2ccc(C(F)(F)F)cc2)C1 [I-47] | 6.26 |
| COCCN(CC1CCCO1)C(=O)CNC(=O)/C=C/c1ccc(C(F)(F)F)cc1 (stereo not shown) [I-48] | 6.27 |
| COCCN(CC1CCOCC1)C(=O)CNC(=O)/C=C/c1ccc(C(F)(F)F)cc1 [I-49] | 6.11 |
| COCCN(Cc1ccccn1)C(=O)CNC(=O)/C=C/c1ccc(C(F)(F)F)cc1 [I-50] | 7.09 |
| COCCN(CCS(C)(=O)=O)C(=O)CNC(=O)/C=C/c1ccc(C(F)(F)F)cc1 [I-51] | 6.41 |
| COCCN(Cc1noc(C)n1)C(=O)CNC(=O)/C=C/c1ccc(C(F)(F)F)cc1 [I-52] | 7.25 |
| COCCN(Cc1cc(OC)ccn1)C(=O)CNC(=O)/C=C/c1ccc(C(F)(F)F)cc1 [I-53] | 7.27 |
| COCCN(Cc1ccncn1)C(=O)CNC(=O)/C=C/c1ccc(C(F)(F)F)cc1 [I-54] | 6.36 |
| COCCN(Cc1ncccc1Cl)C(=O)CNC(=O)/C=C/c1ccc(C(F)(F)F)cc1 [I-55] | 6.91 |
| COCCN(Cc1ncc(C)s1)C(=O)CNC(=O)/C=C/c1ccc(C(F)(F)F)cc1 [I-56] | 7.17 |
| COCCN(Cc1nc(C)c(C)s1)C(=O)CNC(=O)/C=C/c1ccc(C(F)(F)F)cc1 [I-57] | 7.02 |
| COCCN(Cc1cc(C)n(C)n1)C(=O)CNC(=O)/C=C/c1ccc(C(F)(F)F)cc1 [I-58] | 6.45 |
| COCCN(Cc1cccnn1)C(=O)CNC(=O)/C=C/c1ccc(C(F)(F)F)cc1 [I-59] | 6.30 |
| CO[C@H]1CCN(C(=O)CNC(=O)/C=C/c2ccc(C(F)(F)F)cc2)C1 [I-60] | 6.04 |
| Cc1nc2c(s1)CN(C(=O)CNC(=O)/C=C/c1ccc(C(F)(F)F)cc1)C2 [I-61] | 7.09 |
| O=C(/C=C/c1ccc(C(F)(F)F)cc1)NCC(=O)N1Cc2ncsc2C1 [I-62] | 7.11 |
| O=C(/C=C/c1ccc(C(F)(F)F)cc1)NCC(=O)N1Cc2nc[nH]c2C1 [I-63] | 6.79 |
| Cc1noc([C@@H]2CCN(C(=O)CNC(=O)/C=C/c3ccc(C(F)(F)F)cc3)C2)n1 [I-69] | 5.83 |
| O=C(/C=C/c1ccc(C(F)(F)F)cc1)NCC(=O)N1CCC(n2cccn2)CC1 [I-73] | 6.64 |
| O=C(/C=C/c1ccc(C(F)(F)F)cc1)NCC(=O)N1CCCC(n2cccn2)C1 (stereo not shown) [I-74] | 5.88 |
| COCC(C)N(Cc1ccccn1)C(=O)CNC(=O)/C=C/c1ccc(C(F)(F)F)cc1 (stereo not shown) [I-83] | 7.11 |

The next lines start with the values.

| pIC50 | Compound |
| --- | --- |
| 6.97 | O=C(/C=C/c1ccc(C(F)(F)F)cc1)NCC(=O)N1CCNC(=O)C1 [I-1, (E)-N-[2-oxo-2-(3-oxopiperazin-1-yl)ethyl]-3-[4-(trifluoromethyl)phenyl]prop-2-enamide] |
| 7.28 | CN1CCN(C(=O)CNC(=O)/C=C/c2ccc(C(F)(F)F)cc2)CC1 [I-2] |
| 7.40 | CN1CCCN(C(=O)CNC(=O)/C=C/c2ccc(C(F)(F)F)cc2)CC1 [I-3] |
| 7.62 | CC1CN(C(=O)CNC(=O)/C=C/c2ccc(C(F)(F)F)cc2)CCN1C (stereo not shown) [I-6] |
| 5.76 | O=C(/C=C/c1ccc(C(F)(F)F)cc1)NCC(=O)N1CCCNC(=O)C1 [I-16] |
| 6.71 | CN1CCN(C(=O)CNC(=O)/C=C/c2ccc(C(F)(F)F)cc2)CC1=O [I-17] |
| 6.57 | O=C(/C=C/c1ccc(C(F)(F)F)cc1)NCC(=O)N1CCc2nncn2CC1 [I-20] |
| 7.19 | O=C(/C=C/c1ccc(C(F)(F)F)cc1)NCC(=O)N1CCn2ccnc2C1 [I-21] |
| 6.95 | O=C(/C=C/c1ccc(C(F)(F)F)cc1)NCC(=O)N1CCn2cncc2C1 [I-23] |
| 7.68 | O=C(/C=C/c1ccc(C(F)(F)F)cc1)NCC(=O)N1CCc2ncsc2C1 [I-34] |
| 7.29 | O=C(/C=C/c1ccc(C(F)(F)F)cc1)NCC(=O)N1CCn2ncnc2C1 [I-35] |
| 7.82 | O=C(/C=C/c1ccc(C(F)(F)F)cc1)NCC(=O)N1CCc2ccncc2C1 [I-36] |
| 7.04 | O=C(/C=C/c1ccc(C(F)(F)F)cc1)NCC(=O)N1CCn2cc(C(F)(F)F)nc2C1 [I-37] |
| 7.34 | O=C(/C=C/c1ccc(C(F)(F)F)cc1)NCC(=O)N1CCn2c(n[nH]c2=O)C1 [I-38] |
| 7.54 | O=C(/C=C/c1ccc(C(F)(F)F)cc1)NCC(=O)N1CCc2oncc2C1 [I-39] |
| 7.54 | Cn1cnc2c1CN(C(=O)CNC(=O)/C=C/c1ccc(C(F)(F)F)cc1)CC2 [I-40] |
| 7.14 | O=C(/C=C/c1ccc(C(F)(F)F)cc1)NCC(=O)N1CCc2cn[nH]c2C1 [I-42] |

| pIC50 | Compound |
| --- | --- |
| 6.71 | O=C(/C=C/c1ccc(C(F)(F)F)cc1)NCC(=O)N1CCc2nccn2CC1 [I-64] |
| 7.15 | O=C(/C=C/c1ccc(C(F)(F)F)cc1)NCC(=O)N1Cc2cccnc2C1 [I-65] |
| 6.91 | Cn1ncc2c1CN(C(=O)CNC(=O)/C=C/c1ccc(C(F)(F)F)cc1)C2 [I-66] |
| 6.85 | Cn1cnc2c1CN(C(=O)CNC(=O)/C=C/c1ccc(C(F)(F)F)cc1)C2 [I-67] |
| 7.24 | O=C(/C=C/c1ccc(C(F)(F)F)cc1)NCC(=O)N1Cc2cncnc2C1 [I-68] |
| 6.87 | Cn1cc2c(n1)CN(C(=O)CNC(=O)/C=C/c1ccc(C(F)(F)F)cc1)C2 [I-70] |
| 5.87 | O=C(/C=C/c1ccc(C(F)(F)F)cc1)NCC(=O)N1CCC(c2cccnc2)C1 (stereo not shown) [I-71] |
| 6.50 | O=C(/C=C/c1ccc(C(F)(F)F)cc1)NCC(=O)N1CCCn2ncnc2C1 [I-72] |
| 7.00 | O=C(/C=C/c1ccc(C(F)(F)F)cc1)NCC(=O)N1CCc2nc[nH]c2C1 [I-75] |
| 7.28 | O=C(/C=C/c1ccc(C(F)(F)F)cc1)NCC(=O)N1CCc2[nH]ncc2C1 [I-76] |
| 7.15 | Cn1ncc2c1CCN(C(=O)CNC(=O)/C=C/c1ccc(C(F)(F)F)cc1)C2 [I-77] |
| 7.25 | O=C(/C=C/c1ccc(C(F)(F)F)cc1)NCC(=O)N1CCc2ncncc2C1 [I-78] |
| 7.29 | Cn1nc2n(c1=O)CCN(C(=O)CNC(=O)/C=C/c1ccc(C(F)(F)F)cc1)C2 [I-79] |
| 7.38 | O=C(/C=C/c1ccc(C(F)(F)F)cc1)NCC(=O)N1CCn2nncc2C1 [I-80] |
| 7.28 | O=C(/C=C/c1ccc(C(F)(F)F)cc1)NCC(=O)N1CCc2n[nH]c(=O)cc2C1 [I-81] |
| 7.19 | Cn1cc2c(n1)CCN(C(=O)CNC(=O)/C=C/c1ccc(C(F)(F)F)cc1)C2 [I-82] |
